Measurements as given in US7399731B2, “Electrically conductive non-aqueous wellbore fluid” (M-I L.L.C., priority 2001, dated 2008).

Assay: Electrical conductivity of solutions of the organic salts in non-aqueous solvents
Assay type: physicochemical
Procedure: A variety of metal carboxylates were prepared in heptane by reacting versatic acid and 2-ethyl hexanoic acid directly with the metal of choice or with a metal base such as the hydride or hydroxide. Lithium, sodium, potassium, rubidium, calcium and gadolinium systems were synthesised.
A 1 molar solution of potassium bis(2-ethylhexyl) phosphate in Brij 30 was then prepared by dissolving 18.02 grams of the salt in 47.5 grams (50 ml) of the solubilising agent.
A 1 molar solution of AOT (Aldrich Chemicals) in Brij 30 was prepared by dissolving 22.23 grams of AOT in 47.5 grams (50 ml) of Brij 30.
The final AOT/neopentyl glycol/Brij 30 solution of FIG. 10 (i.e. 1 molar AOT and 2 molar neopentyl glycol in Brij 30) was then diluted with successive amounts of mineral spirits and the conductivity measured at each addition.

[1] = 1 molar salt and 2 molar neopentyl glycol in Brij 30, diluted: 20% solution, 80% mineral spirits by volume

| conductivity (1 molar in Brij 30 with 2.0 molar neopentyl glycol, 25° C.) | SMILES | conductivity [1] | conductivity (1 molar solution in Brij 30) |
| --- | --- | --- | --- |
|  | CCCCC(CC)COP(=O)([O-])OCC(CC)CCCC.[K+] (centres unmarked) [potassium bis(2-ethylhexyl) phosphate] | 3.2 ìS/cm | 45.5 ìS/cm |
| 33.5 ìS/cm | CCCCC(CC)COC(=O)CC(C(=O)OCC(CC)CCCC)S(=O)(=O)O.[Na] (centres unmarked) [AOT, sodium salt of bis(2-ethylhexyl) sulfosuccinate] | 1.5 ìS/cm | 15.7 ìS/cm |
